One experiment relates to JNK. As to the kind of experiment: JNK Activation Assay in Panc-1 (western blot). The format is cell-based, Human. The note with it: at 10 μM. More on the design: key: Y = yes; N = No. On the procedure: (§1) Cell lines: Human tumor-derived pancreatic cancer cell line Panc-1 and mouse muscle myoblast C2C12 were purchased from American Type Culture Collection and grown in complete DMEM-High Glucose, supplemented with penicillin (100 U/mL), streptomycin (100 μg/mL), and 10% heat-inactivated FBS at 37° C. in a humidified incubator with 5% CO2.
(§2) Method: Cells were plated at 350000 cells/well density in a 12-well plate, allowed 3 hours to adhere to the plate, then starved in the appropriate medium in the presence of 0.5% FBS overnight. The small molecules to be tested were added to the cells in the final concentration of 10 μM in the presence of 0.3% DMSO for 3 hours incubation at 37° C. For IC50 value determination, serial dilutions of compounds were added to cells under the same conditions. Next, Panc-1 cells were stimulated with 10 ng/ml TGF-b1 for 1 hour, and C2C12 cells were stimulated with 10 ng/ml TGF-b1 for 20 minutes (recombinant human TGF-b1, R&D Systems). After stimulation cells were lysed with lysis buffer containing 1% Triton X-100, EDTA, and Halt™ Protease & Phosphatase Inhibitor Cocktail (Thermo Scientific). Protein concentration was assessed by BCA protein assay (Thermo Scientific). Phosphorylation level of JNK was determined by western blot.
(§3) Western blot protocol: Equal amounts of protein (15-50 μg) were separated by SDS-PAGE and transferred to nitrocellulose membranes (Invitrogen by Thermo Fisher Scientific). The membrane was stained with Ponceau S Stain (Boston BioProducts) to verify uniform protein loading. Membranes were blocked with 10% milk and phosphorylation levels of Smad2, Smad3, INK and p38 were assessed by incubating overnight at 4° C. with the following antibody: Phospho-SAPK/JNK (Thr183/Tyr185), from Cell Signaling Technology. Then the membranes were incubated with HRP-conjugated secondary antibody (Jackson Immunoresearch, West Grove, PA). Bands were incubated in Amersham ECL Prime Western Blotting Detection Reagent (GE Healthcare) and visualized using the ChemiDoc MP imaging system (Bio-Rad).

For the next experiment, the system named is MAPK p38. The experiment can be described thus: MAPK p38 Activation Assay in Panc-1 (western blot). The settings on record: at 10 μM. In kind it is cell-based, Human. More on the design: key: Y = yes; N = No. On the procedure: as §1
as §2, with “MAPK p38” for “JNK”
as §3, with “Smad2/Smad3” for “Smad2, Smad3, INK and p38”, “Phospho-p38 MAPK (Thr180/Tyr182),” for “Phospho-SAPK/JNK (Thr183/Tyr185),”
(In general: A western blot detects proteins with antibodies after separation by electrophoresis.)

The next experiment deals with KRas wild type (Homo sapiens (Human), UniProt P01116). The experiment can be described thus: Ras GTP Binding Domain Inhibition Assay, KRas wild type. Here is the method:
(§4) A Ras Superfamily Activity Assay (as disclosed in International Application No. PCT/US2018/038613, filed Jun. 20, 2018, which is incorporated by reference in its entirety) was used as a specific assay to evaluate compounds against the following for the following Ras Superfamily proteins: KRas wild type, KRas Q61H mutant, KRas G12C mutant, KRas G12D mutant, Rac-1, and Rho-A.
(§5) Buffer-I: • 25 mM Tris-HCl, pH 7.4 • 27 mM KCl • 137 mM NaCl • 1 mM MgCl2 • 1 mM DTT
(§6) Buffer-II: • 50 mM Tris-HCl, pH 7.0 • 1 mM MgCl2 • 1 mM DTT
(§7) The small GTPases proteins: KRas wild type. KRas Q61H mutant, KRas G12C mutant, KRas G12D mutants, Rac-1, and Rho-A were expressed as His-tagged proteins. In addition, the Guanosine nucleotide Exchange Factor (GEF) Sos protein (residues 556-1049) was expressed as a His-tagged protein. In cells, the guanine nucleotide exchange factor Sos protein promotes activation of Ras proteins by stimulating an exchange of GDP for GTP. The inclusion of Sos to the Ras GTP binding domain inhibition assay may be considered as an alternative representation of physiological cellular conditions for evaluating the inhibitory activity of some of the tested small molecules.
(§8) For the assay, all purified small GTPases proteins were diluted in Buffer-I or Buffer-II to a final concentration of 10-30 μg/mL. 200 μL of each diluted protein was added to a nickel-coated 96-well plate and incubated overnight at 4° C. Then the protein solution was discarded and 200 μL of Buffer-I or Buffer-II was added to each well in the presence of 1% DMSO. Compounds to be tested were added to the protein-coated wells at final concentration of 20 μM, and incubated for 3 hours at room temperature with and without 10-30 μg/mL of Sos added to the final hour of the incubation. When performing IC50 measurements a serial dilution of all tested concentrations was added. Then Cy3-GTP or Cy5-GTP was added to each well to a final concentration of 100 nM. The labeled GTP was incubated for 45 minutes at room temperature. Following GTP incubation, wells were washed 3× in Buffer-I or Buffer-II and 200 μL of Buffer-I or Buffer-II was added to each well. Following washes, the amount of bound labeled-GTP was measured using a SpectraMax M3 (Molecular Devices).

The target of another experiment is KRas G12C mutant (Homo sapiens (Human), UniProt P01116, G12C). As to the kind of experiment: Ras GTP Binding Domain Inhibition Assay, KRas G12C mutant. On the procedure:
as §4, §5, §6, §7, §8

The next experiment addresses Rac-1 (Homo sapiens (Human), UniProt P63000). The experiment can be described thus: Ras GTP Binding Domain Inhibition Assay, Rac-1. Here is the method:
as §4, §5, §6, §7, §8

[1] abbreviates: + SOS, read-out: KRas wild type + SOS: % inh.
Setting [2] is: without SOS, read-out: KRas wild type: % inh.
[3] abbreviates: + SOS, read-out: KRas G12C mutant + SOS: % inh.
[4] abbreviates: without SOS, read-out: KRas G12C mutant: % inh.
The mark [5] stands for this setting: without SOS, read-out: Rac-1: % inh.

Where two headings read alike, the source gives them in different places.

Eight compounds from patent publication US20240124483A1, “Methods for the Treatment of Fibrotic Disease” (SHY Therapeutics, LLC, priority 2021, published 2024) can be followed below.

Sequence of KRas G12C mutant (P01116 other isoform, or with tags, fused parts or gaps G12C): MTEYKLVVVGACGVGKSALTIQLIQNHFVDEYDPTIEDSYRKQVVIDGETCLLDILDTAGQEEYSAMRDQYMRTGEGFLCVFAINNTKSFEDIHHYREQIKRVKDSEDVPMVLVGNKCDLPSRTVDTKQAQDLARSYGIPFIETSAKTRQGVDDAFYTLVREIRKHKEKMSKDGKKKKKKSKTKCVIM
Sequence of KRas wild type (P01116 other isoform, or with tags, fused parts or gaps): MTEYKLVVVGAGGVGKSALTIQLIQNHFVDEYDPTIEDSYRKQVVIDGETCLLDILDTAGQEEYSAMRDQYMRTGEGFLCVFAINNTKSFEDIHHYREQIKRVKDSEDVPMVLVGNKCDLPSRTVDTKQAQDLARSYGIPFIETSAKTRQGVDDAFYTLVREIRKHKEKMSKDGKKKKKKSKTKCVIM

`COc1cc(-c2sc3nc(-c4nccn4C)nc(N[C@@H]4CC[C@H](OC)C4)c3c2-c2ccccc2)ccn1` (racemic) [Compound 44, rac-N-((1R,3S)-3-Methoxycyclopentyl)-6-(2-methoxypyridin-4-yl)-2-(1-methyl-1H-imidazol-2-yl)-5-phenylthieno[2,3-d]pyrimidin-4-amine]: the “Activation of JNK in PANC-1” value in the experiment on JNK is on record as “Y”. Further, the “Activation of MAPK p38 in PANC-1” value with MAPK p38 is reported as “N”. Besides, the inhibition at 20 µM was 76 to 100% at KRas wild type (setting [1]); 46 to 75% on KRas wild type (setting [2]); 76 to 100% on KRas G12C mutant (setting [3]); 26 to 45% at KRas G12C mutant (setting [4]); 0% on Rac-1 (setting [5]).

On to `COc1cccc(-c2sc3nc(-c4nccn4C)nc(N[C@H]4C[C@H](OC)C4)c3c2-c2ccccc2)c1F` [Compound 40, 6-(2-Fluoro-3-methoxyphenyl)-N-((1r,3r)-3-methoxycyclobutyl)-2-(1-methyl-1H-imidazol-2-yl)-5-phenylthieno[2,3-d]pyrimidin-4-amine], for which the “Activation of JNK in PANC-1” value with JNK is recorded as “Y”. Moreover, in the experiment on MAPK p38, the “Activation of MAPK p38 in PANC-1” value was “Y”. In addition, the inhibition at 20 µM lay within 76 to 100% at KRas wild type (setting [1]); 46 to 75% on KRas wild type (setting [2]); 76 to 100% on KRas G12C mutant (setting [3]); 46 to 75% at KRas G12C mutant (setting [4]); 26 to 45% on Rac-1 (setting [5]).

Turning to `COCCCOc1nc(-c2nccn2C)nc2sc(-c3ccn(C(C)C)n3)c(-c3ccccc3)c12` [Compound 37, 6-(1-Isopropyl-1H-pyrazol-3-yl)-4-(3-methoxypropoxy)-2-(1-methyl-1H-imidazol-2-yl)-5-phenylthieno[2,3-d]pyrimidine], the “Activation of JNK in PANC-1” value in the experiment on JNK is recorded as “N”. Also, the “Activation of MAPK p38 in PANC-1” value with MAPK p38 is given as “Y”. Moreover, the inhibition at 20 µM is 1 to 25% on KRas wild type (setting [1]); 0% on KRas wild type (setting [2]); 0% at KRas G12C mutant (setting [3]); 0% on KRas G12C mutant (setting [4]); 0% at Rac-1 (setting [5]).

Regarding `COC1CCCN(c2nc(-c3nccn3C)nc3sc(-c4ccn(C(C)C)n4)c(C)c23)C1` (racemic) [Compound 14, rac-6-(1-Isopropyl-1H-pyrazol-3-yl)-4-(3-methoxypiperidin-1-yl)-5-methyl-2-(1-methyl-1H-imidazol-2-yl)thieno[2,3-d]pyrimidine], the “Activation of JNK in PANC-1” value in the experiment with JNK is recorded as “Y”. The “Activation of MAPK p38 in PANC-1” value in the experiment with MAPK p38 is recorded as “Y”. In addition, the inhibition at 20 µM on KRas wild type (setting [1]) is 76 to 100%; on KRas wild type (setting [2]), 0%; at KRas G12C mutant (setting [3]), 76 to 100%; at KRas G12C mutant (setting [4]), 26 to 45%; at Rac-1 (setting [5]), 46 to 75%.

Consider `COCCn1ccc(-c2sc3nc(-c4nccn4C)nc(N[C@@H]4CC[C@H](OC)C4)c3c2C)n1` (racemic) [Compound 39, rac-N-((1R,3S)-3-Methoxycyclopentyl)-6-(1-(2-methoxyethyl)-1H-pyrazol-3-yl)-5-methyl-2-(1-methyl-1H-imidazol-2-yl)thieno[2,3-d]pyrimidin-4-amine], for which the “Activation of JNK in PANC-1” value with JNK is recorded as “Y”. Also, the “Activation of MAPK p38 in PANC-1” value in the experiment on MAPK p38 is listed as “Y”. Further, the inhibition at 20 µM at KRas wild type (setting [1]) was 76 to 100%; on KRas wild type (setting [2]), 76 to 100%; at KRas G12C mutant (setting [3]), 76 to 100%; on KRas G12C mutant (setting [4]), 76 to 100%; at Rac-1 (setting [5]) it was 26 to 45%.

With `COCCCNc1nc(-c2nccn2C)nc2sc(-c3ccccc3)c(-c3ccccc3)c12` [Compound 3, N-(3-Methoxypropyl)-2-(1-methyl-1H-imidazol-2-yl)-5,6-diphenylthieno[2,3-d]pyrimidin-4-amine], the “Activation of JNK in PANC-1” value with JNK is recorded as “Y”. The “Activation of MAPK p38 in PANC-1” value with MAPK p38 was “Y”. Besides, the inhibition at 20 µM at KRas wild type (setting [1]) lay in the range of 1 to 25%; on KRas wild type (setting [2]) it was 46 to 75%; at KRas G12C mutant (setting [4]) it was 46 to 75%; at Rac-1 (setting [5]), 46 to 75%.

With `Cc1c(-c2ccn(C(C)C)n2)sc2nc(-c3nccn3C)nc(NCC3CN(C)CCO3)c12` (racemic) [Compound 25, rac-6-(1-Isopropyl-1H-pyrazol-3-yl)-5-methyl-2-(1-methyl-1H-imidazol-2-yl)-N-((4-methylmorpholin-2-yl)methyl)thieno[2,3-d]pyrimidin-4-amine], the “Activation of JNK in PANC-1” value with JNK is on record as “Y”. For the same compound, the “Activation of MAPK p38 in PANC-1” value in the experiment on MAPK p38 is “Y”. In addition, the inhibition at 20 µM on KRas wild type (setting [1]), on KRas wild type (setting [2]), at KRas G12C mutant (setting [3]), on KRas G12C mutant (setting [4]) and on Rac-1 (setting [5]) was 76 to 100% each time.

`COCCn1ccnc1-c1nc(N[C@H]2C[C@@H](OC)C2)c2c(-c3ccccc3)c(-c3ccn(C)n3)sc2n1` [Compound 13, N-((1s,3s)-3-methoxycyclobutyl)-2-(1-(2-methoxyethyl)-1H-imidazol-2-yl)-6-(1-methyl-1H-pyrazol-3-yl)-5-phenylthieno[2,3-d]pyrimidin-4-amine]: the “Activation of JNK in PANC-1” value in the experiment on JNK was “Y”. For the same compound, the “Activation of MAPK p38 in PANC-1” value with MAPK p38 is “N”. In addition, the inhibition at 20 µM at KRas wild type (setting [1]) was 76 to 100%; on KRas wild type (setting [2]), 76 to 100%; at KRas G12C mutant (setting [3]), 76 to 100%; at KRas G12C mutant (setting [4]), 76 to 100%; on Rac-1 (+ SOS, read-out: Rac-1 + SOS: % inh.), 76 to 100%; on Rac-1 (setting [5]), 76 to 100%.
